Laboratory results from US4110327A, “2,3 Diketo-piperazinocarbonylamino alkanoic acids and derivatives” (Toyama Chemical Co., Ltd., priority 1974, dated 1978).

Key:
[1] = Acute toxicity LD50 i.v. in mouse; conditions: in vivo, iv
Text: The present penicillins and cephalosporins have generally low toxicity.

Shigella sonnei = test: MIC against clinical isolates; assay type: cell-based; conditions: unit assumed
Procedure: (§1) The minimum inhibitory concentrations (MIC) was determined by the plate method disclosed in "Chemotherapy" (Japan), Vol. 16, (1968), pages 98 - 99. The culture medium used was a Heart infusion agar (pH 7.4). The number of the cells per plate used in the inoculum as 10^4 (10^6 cells/ml).
(§2) MIC was determined in the same manner as in the preceding paragraph (1).

Shigella flexneri = test: MIC against clinical isolates; assay type: cell-based; conditions: unit assumed
Procedure: as §1, §2

Klebsiella pneumoniae [2] = test: MIC against clinical isolates; assay type: cell-based; conditions: unit assumed
Staphylococcus aureus = test: MIC against clinical isolates; assay type: cell-based; conditions: unit assumed
Escherichia coli = test: MIC against clinical isolates; assay type: cell-based; conditions: unit assumed
Salmonella typhi = test: MIC against clinical isolates; assay type: cell-based; conditions: unit assumed
Pseudomonas aeruginosa = test: MIC against clinical isolates; assay type: cell-based; conditions: unit assumed
Proteus mirabilis = test: MIC against clinical isolates; assay type: cell-based; conditions: clinical isolate, unit assumed
Proteus rettgeri = test: MIC against clinical isolates; assay type: cell-based; conditions: clinical isolate, unit assumed
Salmonella typhi-murium = test: MIC against clinical isolates; assay type: cell-based; conditions: unit assumed
Proteus vulgaris = test: MIC against clinical isolates; assay type: cell-based; conditions: clinical isolate, unit assumed
Proteus morganii = test: MIC against clinical isolates; assay type: cell-based; conditions: clinical isolate, unit assumed
β-lactamase = test: Resistant activity against β-lactamase, iodometric assay; assay type: biochemical, Pseudomonas aeruginosa GN 238; conditions: relative to Potassium Penicillin G = 100
Outline: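 β-Lactamase taken as sonicated-cell supernatant from Pseudomonas aeruginosa GN 238 grown 6 h at 37° C, washed in 0.1 M phosphate pH 7.0. Compound stability to the enzyme measured iodometrically; values relative to potassium penicillin G set at 100.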

Klebsiella pneumoniae [3] = test: MIC against standard strain, plate method; assay type: cell-based; conditions: unit assumed
Outline: (§3)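 Plate-method MIC. Medium: heart infusion agar, pH 7.4. Inoculum: 10^4 cells per plate (10^6 cells/ml).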

[4] = test system: Staphylococcus aureus 209p; test: MIC against standard strain, plate method; assay type: cell-based; conditions: unit assumed
Outline: as §3

Escherichia coli NIHJ = test: MIC against standard strain, plate method; assay type: cell-based; conditions: unit assumed
Outline: as §3

[5] = test system: Pseudomonas aeruginosa I.F.O.; test: MIC against standard strain, plate method; assay type: cell-based; conditions: unit assumed
Outline: as §3

Proteus vulgaris 3027 = test: MIC against standard strain, plate method; assay type: cell-based; conditions: Proteus vulgaris 3027, standard strain; unit assumed
Outline: as §3

[6] = clinical isolate GN (number not given; Table 5-3)

CN1CCN(C(=O)N[C@@H](C(=O)N[C@@H]2C(=O)N3[C@@H]2SC(C)(C)[C@@H]3C(=O)O)c2ccccc2)C(=O)C1=O
> 5000 mg/kg: LD50 [1]

CCN1CCN(C(=O)N[C@@H](C(=O)N[C@@H]2C(=O)N3[C@@H]2SC(C)(C)[C@@H]3C(=O)O)c2ccccc2)C(=O)C1=O
> 5000 mg/kg: LD50 [1]

CCCCN1CCN(C(=O)N[C@@H](C(=O)N[C@@H]2C(=O)N3[C@@H]2SC(C)(C)[C@@H]3C(=O)O)c2ccccc2)C(=O)C1=O (single isomer, unassigned) [compound 39]
0.4 µg/mL: MIC [4] | MIC (Proteus vulgaris 3027)
15%: Relative activity (β-lactamase)
25 µg/mL: MIC (Shigella sonnei; clinical isolate JS 11232) | MIC (Shigella flexneri; clinical isolate JS 11215) | MIC (Klebsiella pneumoniae [2]; clinical isolate GN 4081) | MIC (Klebsiella pneumoniae [2]; clinical isolate GN 4117) | MIC (Escherichia coli; clinical isolate GN 3465) | MIC (Pseudomonas aeruginosa; clinical isolate S-3)
> 200 µg/mL: MIC (Staphylococcus aureus; clinical isolate F-5) | MIC (Escherichia coli; clinical isolate GN 3611) | MIC (Escherichia coli; clinical isolate K-3)
100 µg/mL: MIC (Salmonella typhi-murium; clinical isolate SL 2136)
< 0.1 µg/mL: MIC (Escherichia coli NIHJ)
12.5 µg/mL: MIC (Pseudomonas aeruginosa; clinical isolate GN 1035) | MIC (Pseudomonas aeruginosa; clinical isolate GN 2565) | MIC (Pseudomonas aeruginosa; clinical isolate S-1) | MIC (Pseudomonas aeruginosa; clinical isolate S-2) | MIC (Pseudomonas aeruginosa; clinical isolate S-4)
< 0.4 µg/mL: MIC (Proteus mirabilis) | MIC (Proteus vulgaris) | MIC (Proteus morganii)
6.25 µg/mL: MIC (Staphylococcus aureus; clinical isolate F-1) | MIC (Staphylococcus aureus; clinical isolate F-4) | MIC (Pseudomonas aeruginosa; clinical isolate GN 376) | MIC (Pseudomonas aeruginosa; clinical isolate GN 383) | MIC (Pseudomonas aeruginosa; [6]) | MIC (Proteus rettgeri) | MIC [5]
1.57 µg/mL: MIC (Shigella sonnei; clinical isolate JS 11755) | MIC (Klebsiella pneumoniae [2]; clinical isolate GN 917) | MIC (Staphylococcus aureus; clinical isolate F-2) | MIC (Staphylococcus aureus; clinical isolate F-3) | MIC (Staphylococcus aureus; clinical isolate MS 8588) | MIC (Staphylococcus aureus; clinical isolate MS 8596) | MIC (Escherichia coli; clinical isolate GN 3481) | MIC (Escherichia coli; clinical isolate K-1) | MIC (Escherichia coli; clinical isolate K-2) | MIC (Klebsiella pneumoniae [3])
0.79 µg/mL: MIC (Shigella flexneri; clinical isolate JS 11839) | MIC (Staphylococcus aureus; clinical isolate MS 8619) | MIC (Escherichia coli; clinical isolate GN 3435) | MIC (Escherichia coli; clinical isolate GN 3452) | MIC (Escherichia coli; clinical isolate K-4) | MIC (Salmonella typhi; clinical isolate SL 819) | MIC (Salmonella typhi; clinical isolate SL 2169) | MIC (Salmonella typhi-murium; clinical isolate SL 858)
3.13 µg/mL: MIC (Klebsiella pneumoniae [2]; clinical isolate GN 3850) | MIC (Staphylococcus aureus; clinical isolate MS 8684) | MIC (Staphylococcus aureus; clinical isolate MS 8713) | MIC (Pseudomonas aeruginosa; clinical isolate GN 82) | MIC (Pseudomonas aeruginosa; clinical isolate GN 163) | MIC (Pseudomonas aeruginosa; clinical isolate GN 221) | MIC (Pseudomonas aeruginosa; clinical isolate GN 1091) | MIC (Pseudomonas aeruginosa; clinical isolate GN 2987)

CCCCCN1CCN(C(=O)N[C@@H](C(=O)N[C@@H]2C(=O)N3[C@@H]2SC(C)(C)[C@@H]3C(=O)O)c2ccccc2)C(=O)C1=O (single isomer, unassigned) [compound 45]
16%: Relative activity (β-lactamase)
50 µg/mL: MIC (Pseudomonas aeruginosa; clinical isolate GN 1035) | MIC (Pseudomonas aeruginosa; clinical isolate S-3)
1.57 µg/mL: MIC (Salmonella typhi; clinical isolate SL 819)
< 0.4 µg/mL: MIC (Proteus mirabilis) | MIC (Proteus vulgaris)
0.4 µg/mL: MIC (Proteus vulgaris 3027)
12.5 µg/mL: MIC (Pseudomonas aeruginosa; clinical isolate GN 82) | MIC (Pseudomonas aeruginosa; clinical isolate GN 163) | MIC (Pseudomonas aeruginosa; clinical isolate GN 1091) | MIC (Pseudomonas aeruginosa; clinical isolate GN 2987) | MIC [5]
> 200 µg/mL: MIC (Staphylococcus aureus; clinical isolate F-5) | MIC (Escherichia coli; clinical isolate GN 3611)
6.25 µg/mL: MIC (Staphylococcus aureus; clinical isolate F-1) | MIC (Staphylococcus aureus; clinical isolate F-4) | MIC (Staphylococcus aureus; clinical isolate MS 8713) | MIC (Proteus rettgeri)
3.13 µg/mL: MIC (Klebsiella pneumoniae [2]; clinical isolate GN 3850) | MIC (Staphylococcus aureus; clinical isolate MS 8588) | MIC (Staphylococcus aureus; clinical isolate MS 8596) | MIC (Staphylococcus aureus; clinical isolate MS 8684) | MIC (Pseudomonas aeruginosa; clinical isolate GN 221)
200 µg/mL: MIC (Escherichia coli; clinical isolate K-3) | MIC (Salmonella typhi-murium; clinical isolate SL 2136)
25 µg/mL: MIC (Shigella sonnei; clinical isolate JS 11232) | MIC (Shigella flexneri; clinical isolate JS 11215) | MIC (Klebsiella pneumoniae [2]; clinical isolate GN 4081) | MIC (Klebsiella pneumoniae [2]; clinical isolate GN 4117) | MIC (Escherichia coli; clinical isolate GN 3465) | MIC (Pseudomonas aeruginosa; clinical isolate GN 376) | MIC (Pseudomonas aeruginosa; clinical isolate GN 383) | MIC (Pseudomonas aeruginosa; clinical isolate GN 2565) | MIC (Pseudomonas aeruginosa; [6]) | MIC (Pseudomonas aeruginosa; clinical isolate S-1) | MIC (Pseudomonas aeruginosa; clinical isolate S-2) | MIC (Pseudomonas aeruginosa; clinical isolate S-4)
< 0.1 µg/mL: MIC (Escherichia coli NIHJ)
0.79 µg/mL: MIC (Staphylococcus aureus; clinical isolate MS 8619) | MIC (Escherichia coli; clinical isolate GN 3435) | MIC (Escherichia coli; clinical isolate K-1) | MIC (Escherichia coli; clinical isolate K-4) | MIC (Salmonella typhi; clinical isolate SL 2169) | MIC (Salmonella typhi-murium; clinical isolate SL 858) | MIC (Proteus morganii) | MIC (Klebsiella pneumoniae [3]) | MIC [4]
